Test results from publication PMC9230136 (Pharmaceutics, 2022).
Where two headings read alike, the source gives them in different places.

Assays:
A549 [1] = assay: Antiproliferative assay (resazurin, 72 h); assay type: cell-based, human
Experimental: (§1) Colon adenocarcinoma (HT-29) and T-cell leukemia (Jurkat) cells were grown in RPMI-1640 medium (Gibco, Milano, Italy). Promyelocytic leukemia cells (HL-60), non-small cell lung carcinoma (A549), cervix carcinoma (HeLa) and breast adenocarcinoma (MDA-MB-231) cells were grown in DMEM medium (Gibco, Milano, Italy). Both media were supplemented with 115 units/mL of penicillin G (Gibco, Milano, Italy), 115 μg/mL of streptomycin (Invitrogen, Milano, Italy) and 10% fetal bovine serum (Invitrogen, Milano, Italy). All the cell lines used were purchased from the American Type Culture Collection (ATCC, Manassas, VA, USA). Stock solutions (10 mM) of the compounds were obtained by dissolving them in DMSO.
(§2) The cells were seeded in 96-well plates at the appropriate density for each cell line. After 24 h, the cells were treated by performing serial 5-fold dilutions of the tested compounds starting from a concentration of 10 μM. All experimental conditions were tested in triplicate for statistical analysis. The plates were incubated for 72 h at 37 °C in a humidified 5% CO2 atmosphere. At the end of the incubation period, 10 μL of 100 μg/mL resazurin solution was added to each well; then, the plate was re-incubated for 3–4 h. The fluorescence of the wells in each plate was monitored using a Spark 10 M spectrophotometer (Tecan Group Ltd., Mannedorf, Switzerland) with a 535 nm excitation wavelength and a 600 nm emission wavelength.

HT-29 = assay: Antiproliferative assay (resazurin, 72 h); assay type: cell-based, human; details: Table 2, mean ± SE, 72 h
Experimental: as §1, §2

HeLa = assay: Antiproliferative assay (resazurin, 72 h); assay type: cell-based, human; details: Table 2, mean ± SE
Experimental: as §1, §2

Jurkat = assay: Antiproliferative assay (resazurin, 72 h); assay type: cell-based, human; details: for IC50: Table 2, mean ± SE, 72 h; for fold increase in activity relative to 7ad: Jurkat cells
Experimental: as §1, §2

MDA-MB-231 = assay: Antiproliferative assay (resazurin, 72 h); assay type: cell-based, human; details: Table 2, mean ± SE, 72 h
Experimental: as §1, §2

[2] = system: A549, MDA-MB-231, HeLa, HT-29 and Jurkat cancer cell lines; assay: Antiproliferative activity over the panel of cancer cell lines; assay type: cell-based, human; details: for fold reduction in potency (vs 7y): MDA-MB-231 and HT-29 cells; for IC50: mean over the five cancer cell lines, read-out: mean IC50 (antiproliferative activity)
Experimental: as §1, §2

Bovine brain tubulin [3] = assay: Inhibition of tubulin polymerization; assay type: biochemical; details: for IC50: tubulin at 10 μM, read-out: Tubulin Assembly IC50 ± SD
Experimental: (§3) Bovine brain tubulin was purified as described previously. To evaluate the effects of the compounds on tubulin assembly in vitro [35], varying concentrations were preincubated with 10 μM tubulin in 0.8 M monosodium glutamate (pH 6.6) at 30 °C and the reaction mixtures then cooled to 0 °C. After addition of GTP, the mixtures were transferred to 0 °C cuvettes in Beckman Coulter (Brea, CA, USA) DU-7400/DU-7500 recording spectrophotometers equipped with electronic temperature controllers and warmed to 30 °C, and the assembly of tubulin was observed turbidimetrically. […] Inhibition of colchicine binding to tubulin was measured as described before, except that the reaction mixtures contained 0.5 μM tubulin and 5 μM each of [^3H]colchicine and test compound. Only one DEAE-cellulose filter was used per sample, and filtration was by gravity.

Bovine brain tubulin [4] = assay: Inhibition of [3H]colchicine binding to tubulin; details: tubulin 0.5 µM, [3H]colchicine 5 µM, compound 5 µM
Experimental: as §3

A549 [5] = details: read-out: IC50 (compared with 8u on A549); cited from earlier work
[6] = Homo sapiens, A549, Table 2, mean ± SE

Structure (SMILES) | IC50 (A549 [1]; Table 2, mean ± SE) [nM] | IC50 (HT-29) [nM] | IC50 (HeLa) [nM] | IC50 (Jurkat) [nM] | IC50 (MDA-MB-231) [nM] | IC50 (Bovine brain tubulin [3]) [nM] | Colchicine Binding % Inhibition ± SD (Bovine brain tubulin [4]) [%] | IC50 (A549 [5]) [nM] | other results
Cc1cc(Nc2ccc(Cl)cc2)n2nc(NCc3ccc4c(c3)OCO4)nc2n1 [Compound 8i, N^2-(Benzo[d][1,3]dioxol-5-ylmethyl)-N^7-(4-chlorophenyl)-5-methyl-[1,2,4]triazolo [1,5-a]pyrimidine-2,7-diamine] |  |  |  |  |  |  |  |  | IC50 (A549 [1]; [6]): 810 ± 220 nM; IC50 (HT-29; Homo sapiens, HT-29): 600 ± 160 nM; IC50 (HeLa; Homo sapiens, HeLa): 190 ± 120 nM; IC50 (Jurkat; Homo sapiens, Jurkat): 280 ± 50 nM; fold increase in activity relative to 7ad (Jurkat): 3-4 fold; IC50 (MDA-MB-231; Homo sapiens, MDA-MB-231): 940 ± 340 nM; fold reduction in potency (vs 7y) [2]: 2–3 fold; melting point: 156 to 158 °C
Cc1cc(Nc2ccc(Br)cc2)n2nc(NCc3ccc4c(c3)OCO4)nc2n1 [Compound 8l, N^2-(Benzo[d][1,3]dioxol-5-ylmethyl)-N^7-(4-bromophenyl)-5-methyl-[1,2,4]triazolo [1,5-a]pyrimidine-2,7-diamine] |  |  |  |  |  |  |  |  | IC50 (A549 [1]; [6]): 430 ± 180 nM; IC50 (HT-29; Homo sapiens, HT-29): 420 ± 20 nM; IC50 (HeLa; Homo sapiens, HeLa): 220 ± 40 nM; IC50 (Jurkat; Homo sapiens, Jurkat): 260 ± 50 nM; fold increase in activity relative to 7ad (Jurkat): 3-4 fold; IC50 (MDA-MB-231; Homo sapiens, MDA-MB-231): 1270 ± 450 nM; fold reduction in potency (vs 7y) [2]: 2–3 fold; melting point: 182 to 184 °C
Cc1cc(Nc2ccc(Cl)cc2)n2nc(NCCCc3ccccc3)nc2n1 [Compound 8s] | 70 ± 10 | 53 ± 1 | 48 ± 1 | 83 ± 20 | 200 ± 70 | 390 ± 10 | 88 ± 3 |  | IC50 [2]: 91 nM; fold more potent than CA-4, tubulin polymerization (Bovine brain tubulin [3]): about 2 fold
Cc1cc(Nc2ccc(Br)cc2)n2nc(NCCCc3ccccc3)nc2n1 [Compound 8u] | 48 ± 10 | 83 ± 20 | 22 ± 10 | 150 ± 14 | 120 ± 40 | 380 ± 20 | 84 ± 2 |  | IC50 [2]: 83 nM; fold more potent than CA-4, tubulin polymerization (Bovine brain tubulin [3]): about 2 fold
C#Cc1cccc(Nc2cc(C)nc3nc(NCCCc4ccccc4)nn23)c1 [Compound 8v] | 110 ± 30 | 83 ± 20 | 69 ± 10 | 160 ± 10 | 350 ± 10 | 430 ± 50 | 70 ± 3 |  | 
CO[C@H]1C(=O)[C@]2(C)[C@@H](OC)C[C@H]3OC[C@@]3(OC(C)=O)[C@H]2[C@H](OC(=O)c2ccccc2)[C@]2(O)C[C@H](OC(=O)[C@H](O)[C@@H](NC(=O)OC(C)(C)C)c3ccccc3)C(C)=C1C2(C)C [cabazitaxel] |  |  |  |  |  |  |  | 15 | 
CC(=O)O[C@@]12CO[C@@H]1C[C@H](O)[C@@]1(C)C(=O)[C@H](O)C3=C(C)[C@@H](OC(=O)[C@H](O)[C@@H](NC(=O)OC(C)(C)C)c4ccccc4)C[C@@](O)([C@@H](OC(=O)c4ccccc4)[C@H]21)C3(C)C [docetaxel] |  |  |  |  |  |  |  | 19.5 | 
COc1cccc2c1C(=O)c1c(O)c3c(c(O)c1C2=O)C[C@@](O)(C(=O)CO)C[C@@H]3O[C@H]1C[C@H](N)[C@H](O)[C@H](C)O1 [doxorubicin] |  |  |  |  |  |  |  | 11600 | 
CC(=O)O[C@H]1C(=O)[C@@]2(C)[C@H]([C@H](OC(=O)c3ccccc3)[C@]3(O)C[C@H](OC(=O)[C@H](O)[C@@H](NC(=O)c4ccccc4)c4ccccc4)C(C)=C1C3(C)C)[C@]1(OC(C)=O)CO[C@@H]1C[C@@H]2O [paclitaxel] |  |  |  |  |  |  |  | 3.5 | 
